Data as given in patent US7932262B2 (Novartis AG, priority 2006, dated 2011).
Where two headings read alike, the source gives them in different places.

Assays:
PC-3 cells = test: Cell Proliferation Assay (Cell Titer Glo), PC-3 cell line; type: cell-based; conditions: read-out: CPEC50 PC3
In short: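 Cell Titer Glo luminescence, read after fresh medium replaced the dosing medium, gave viability of PC-3 cells plated at 1000 cells/well. Compounds, 1:3 serially diluted in DMSO at 500× and then in medium, were added after 3-5 h adhesion and incubated 3 days at 37° C.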

PDK1 kinase = target: T1, PDK1 kinase (Homo sapiens, UniProt O15530); test: PDK1 Kinase Alpha Screen Assay; type: biochemical; conditions: read-out: PDK1 IC50
T1 sequence (O15530 1-556): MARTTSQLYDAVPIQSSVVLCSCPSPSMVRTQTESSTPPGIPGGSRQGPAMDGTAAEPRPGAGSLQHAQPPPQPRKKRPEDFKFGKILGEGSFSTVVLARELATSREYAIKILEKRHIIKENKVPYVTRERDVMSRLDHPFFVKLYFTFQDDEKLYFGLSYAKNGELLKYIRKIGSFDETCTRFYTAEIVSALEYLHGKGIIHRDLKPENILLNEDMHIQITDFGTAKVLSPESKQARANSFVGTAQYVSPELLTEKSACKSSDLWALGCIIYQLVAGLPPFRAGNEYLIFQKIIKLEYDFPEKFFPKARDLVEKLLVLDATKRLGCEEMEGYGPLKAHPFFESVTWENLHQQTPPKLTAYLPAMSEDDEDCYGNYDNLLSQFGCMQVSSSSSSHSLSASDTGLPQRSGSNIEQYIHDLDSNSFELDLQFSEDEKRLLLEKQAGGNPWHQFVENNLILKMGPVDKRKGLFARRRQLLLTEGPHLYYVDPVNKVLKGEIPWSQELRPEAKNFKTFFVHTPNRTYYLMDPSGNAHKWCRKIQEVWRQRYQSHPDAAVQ
In short: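 Kinase inhibition measured as loss of AlphaScreen signal from antibody recognition of phosphorylated biotin-PDK1-4 peptide. Reactions contain 10 uM ATP and 50 nM peptide, run 3-18 hours before EDTA quench and overnight bead development at room temperature.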

[1] = Homo sapiens, PC-3, Cell Proliferation Assay, PC3

Structure (SMILES)	EC50 (PC-3 cells; [1])	IC50 (PDK1 kinase; PDK1 Kinase Alpha Screen Assay)	EC50 (PC-3 cells; Homo sapiens, PC-3, PC3 cells)	IC50 (PDK1 kinase)	EC50 (PC-3 cells; PC3 cells)
N#Cc1cccc(Nc2ncc3cccc(-c4ccc(NCCN5CCCC5)nc4)c3n2)c1 [Compound 397, 3-(8-(6-(2-(pyrrolidin-1-yl)ethylamino)pyridin-3-yl)quinazolin-2-ylamino)benzonitrile]	< 5 µM	< 5 µM	–	–	–
CC(C)NC(=O)c1ccc(Nc2ncc3ccc(NC4CCN(C)CC4)cc3n2)cc1 [Compound 354, N-isopropyl-4-(7-(1-methylpiperidin-4-ylamino)quinazolin-2-ylamino)benzamide]	< 5 µM	< 5 µM	–	–	–
Fc1cccc(Nc2ncc3cccc(-c4ccc(NCCN5CCCC5)nc4)c3n2)c1 [Compound 1020, N-(3-fluorophenyl)-8-(6-(2-(pyrrolidin-1-yl)ethylamino)pyridin-3-yl)quinazolin-2-amine]	–	–	< 5 µM	< 5 µM	–
NS(=O)(=O)c1ccc(Nc2ncc3cccc(-c4ccc(CN5CCOCC5)cc4)c3n2)cc1 [Compound 986, 4-(8-(4-(mopholinomethyl)phenyl)quinazolin-2-ylamino)benzenesulfonamide]	–	–	< 5 µM	< 5 µM	–
NC(=O)c1cc(Nc2ncc3cccc(OC4CCNCC4)c3n2)ccc1N1CCOCC1 [Compound 448, 2-morpholino-5-(8-(piperidin-4-yloxy)quinazolin-2-ylamino)benzamide]	5 to 10 µM	< 5 µM	–	–	–
O=C(O)c1cc(Nc2ncc3cccc(OC4CCNCC4)c3n2)ccc1N1CCOCC1 [Compound 449, 2-morpholino-5-(8-(piperidin-4-yloxy)quinazolin-2-ylamino)benzoic acid]	5 to 10 µM	< 5 µM	–	–	–
Cc1ccc(Nc2ncc3ccc(O)c(C4CCN(C(C)C)CC4)c3n2)cc1NS(C)(=O)=O [Compound 1026, N-(5-(7-hydroxy-8-(1-isopropylpiperidin-4-yl)quinazolin-2-ylamino)-2-methylphenyl)methanesulfonamide]	–	–	< 5 µM	< 5 µM	–
CC(C)N1CCC(Oc2cc3nc(Nc4ccc(N5CCOCC5)cc4)ncc3cc2-c2nccs2)CC1 [Compound 619, 7-(1-isopropylpiperidin-4-yloxy)-N-(4-morpholinophenyl)-6-(thiazol-2-yl)quinazolin-2-amine]	< 5 µM	< 5 µM	–	–	–
O=C(c1cc(Nc2ncc3cccc(OC4CCNCC4)c3n2)ccc1F)N1CCOCC1 [Compound 475, (2-fluoro-5-(8-(piperidin-4-yloxy)quinazolin-2-ylamino)phenyl)(morpholino)methanone]	5 to 10 µM	< 5 µM	–	–	–
Clc1ccc(Nc2ncc3cccc(-c4ccc(NCCN5CCCC5)nc4)c3n2)cc1 [Compound 995, N-(4-chorophenyl)-8-(6-(2-(pyrrolidin-1-yl)ethylamino)pyridin-3-yl)quinazolin-2-amine]	–	–	–	< 5 µM	< 5 µM
Fc1cc(Nc2ncc3c(Cl)ccc(OC4CCNCC4)c3n2)ccc1N1CCOCC1 [Compound 597, 5-chloro-N-(3-fluoro-4-morpholinophenyl)-8-(piperidin-4-yloxy)quinazolin-2-amine]	5 to 10 µM	< 5 µM	–	–	–
CN1CCN(c2ccc(-c3cccc4cnc(Nc5cccc(-c6cnco6)c5)nc34)cn2)CC1 [Compound 443, 8-(6-(4-methylpiperazin-1-yl)pyridin-3-yl)-N-(3-(oxazol-5-yl)phenyl)quinazolin-2-amine]	< 5 µM	< 5 µM	–	–	–
CC(=O)Nc1ccc(Nc2ncc3ccc(OC4CCN(C(C)C)CC4)cc3n2)cc1Cl [Compound 320, N-(2-chloro-4-(7-(1-isopropylpiperidin-4-yloxy)quinazolin-2-ylamino)phenyl)acetamide]	< 5 µM	< 5 µM	–	–	–
CC(C)NC(=O)c1cc(Nc2ncc3cccc(OC4CCNCC4)c3n2)ccc1F [Compound 474, 2-fluoro-N-isopropyl-5-(8-(piperidin-4-yloxy)quinazolin-2-ylamino)benzamide]	< 5 µM	< 5 µM	–	–	–
